In US20160082130A1, “Dosage Forms and Methods for Diagnosing Sympathetic Nervous System Dysfunction” (priority 2014, published 2016):

Legend:
[1] = test system: patients with a diagnosis of GBS; assay: apraclonidine 0.05% eye drop test in patients with Guillain-Barré syndrome (digital photographs, Image-J); format: in vivo, human
From the text: (§1) Patients with a diagnosis of GBS based on history and clinical exam were recruited for this study. Patients with diabetes were excluded from the study. Patients on medications or eye drops with either sympathetic or parasympathetic action were also excluded from the study. […] All patients had electrophysiological studies done in terms of nerve conduction studies at the time of their diagnosis. Patients on opioid therapy were not excluded. In total, five patients met the criteria for inclusion. Healthy control participants were recruited in outpatient clinics from partners and family members accompanying a person with an appointment. Participants with diabetes, ocular disease, previous ocular surgeries, and on sympathetic or parasympathetic medications or eye drops were also excluded from the study. Digital photographs of the subjects' eyes were obtained prior to the application of apraclonidine. A small pre-measured reference was used at the time of photography to help quantify measurements. Apraclonidine (0.05% drop) was added to the left eye and a follow up photograph was obtained some time (19-52 min) after the application of the drop. The digital photographs were analyzed with Image-J software (Schneider, C. A., et al., Nat. Methods 9:671-675, 2012) to determine pupillary diameter and palpebral fissure heights. Standard deviation of the measurements for error propagation was determined by repeated computer measurement of the pre-measured reference in a digital photograph. Palpebral fissure height was determined by measuring the vertical distance between the eyelids with the measurement going through the centre of each pupil. Pupillary diameter was determined with two measurements (horizontal and vertical) and an average denoted as OS or OD used for each pupil for further calculations. Pupillary response was quantified with the percentage ratio (D2−D1)/D1×100, where D1 and D2 represent the baseline anisocoria (D1=OS−OD) and the drug-induced anisocoria (D2=OS*−OD*) respectively.

healthy subjects = assay: apraclonidine 0.05% eye drop test in healthy control subjects (digital photographs, Image-J); format: in vivo, human
From the text: as §1

For Nc1cc(Cl)c(NC2=NCCN2)c(Cl)c1 [apraclonidine, 2,6-dichloro-N-(4,5-dihydro-1H-imidazol-2-yl)benzene-1,4-diamine], the “amplification of palpebral fissure height difference after application” value ([1]; GBS patients with only ptosis, computer analysis of digital photographs) was 1130% (±80%), the “amplification of anisocoria after administration” value ([1]; GBS patients with pupillary dysfunction, (D2-D1)/D1x100) was 1124% (±324%) and the “unmasking of bilateral ptosis” value ([1]; five GBS patients, 0.05% drop to left eye, photograph 19-52 min after) was “unmasked bilateral ptosis in all five GBS patients”. The “unmasking of bilateral Horner's syndrome with dilation of miotic pupil” value ([1]; five GBS patients, 0.05% drop to one eye) was “unmasked bilateral Horner's syndrome with dilation of miotic pupil in two of the five patients”, the “unmasking of reverse ptosis of the lower eyelid” value ([1]; photographic evidence from the subjects in this study) was “unmasks a reverse ptosis of the lower eyelid” and the “effect on pupillary diameter” value (healthy subjects; healthy subjects, 0.05% drop to one eye) was “no significant effect”. The “effect on the pupils” value (healthy subjects; healthy subjects, analysis of digital photographs) was “either no effect or caused paradoxical miosis of the pupil” and the “effect on palpebral fissure height” value (healthy subjects; normal individuals, 0.05% drop to one eye) was “did not have any significant effect”.
